Residues, ends and D or L forms follow the SMILES beside them. *: point of attachment. Cbz = O=C(OCc1ccccc1)*; CH2F = FC*
Key:
[1] = test system: podocytes; conditions: in vivo; cited from earlier work
[2] = test system: rat glomerulonephritis model; conditions: cited from earlier work
[3] = test system: cathepsin L; experiment: Cellular CatL cleavage assay: CD2AP-FLAG HEK293 cells co-transfected with cathepsin L constructs; format: cell-based; conditions: for cleavage of CD2AP into p32 by WT cathepsin L: WT cathepsin L (pre-pro and short form), co-incubation with inhibitor; for cleavage of CD2AP into p32 by cytosolic (short, CatL M1) cathepsin L: cytosolic cathepsin L alone, inhibitor added
Excerpt: FIG. 2A is a scan of a photograph showing a silver stained gel of FLAG-CD2AP after cleavage with CatL at various pH. FIG. 2B is a scan of a photograph showing an immunoblot of cleaved CD2AP fragments that are tagged with a N-terminal GFP. GFP-CD2AP is stable in the absence of CatL enzyme. Cleavage of CD2AP at pH 4.5 and 5.5 leads to complete digestion of the protein. At pH 7.0, CD2AP is cleaved into a stable 55 kD fragment (▪) as detected with an anti-GFP antibody. The same fragment is detected with the CD2AP antiserum which is raised against the SH3 domains of CD2AP (anti-N-CD2AP). The CD2AP antiserum also detects a weak band corresponding to a 44 kD fragment (▴, detected by the affinity of the antibody to the C-terminal SH3, anti-C-CD2AP). FIG. 2C is a schematic representation showing the match of cleavage fragments with predicted CatL cleavage site QPLGS. FIG. 2D is a blot showing that CatL cleaves CD2AP-FLAG yielding a 44 kD (▴) and a 32 kD ([…]) fragment. FIG. 2E is a schematic representation showing that both fragments have corresponding predictions in the amino acid sequence of CD2AP (QPLGS and LSAAE). FIG. 2F is a blot showing results from a cellular CatL cleavage assay: Wild type (WT) CatL (pre-pro CatL and short form) cleaves CD2AP in HEK293 cells. […] Short CatL (CatL M1) is sufficient to cleave CD2AP yielding a 32 kD fragment ([…]). This cleavage is abrogated by a specific CatL inhibitor. FIG. 2G is a blot showing that deletion of the CatL cleavage site LSAAE protects CD2AP from limited proteolysis into the 32 kD fragment ([…]).
Cell culture and transient transfection. Mouse podocytes were cultured as described previously (Mundel, P. et al. Exp. Cell Res. 236, 248-258 (1997)). HEK293 cells were maintained and transfected as previously reported (Reiser, J. et al. Nat. Genet. 37, 739-744 (2005)).
Next, it was investigated whether cytosolic cathepsin L in cells is sufficient to process CD2AP. CD2AP-FLAG expressing HEK293 cells were co-transfected with WT cathepsin L […] which generates cytosolic and lysosomal cathepsin L protein and a cathepsin L construct that contains a deletion of the first AUG site and thus encodes selectively for the cytosolic form of cathepsin L. The experiments were performed in the presence or absence of a specific cathepsin L inhibitor (FIG. 2F). WT cathepsin L led to cleavage of CD2AP yielding p32. […] More importantly, transfection of cytosolic cathepsin L alone was sufficient to cleave CD2AP resulting in the production of p32 (FIG. 2F). […] The stable p32 fragment was identified in the cleavage assays at neutral pH (FIG. 2A). In addition, this fragment was generated in HEK 293 cells using cytosolic cathepsin L. Therefore, this fragment was regarded as an end-product generated through cytosolic cathepsin L cleavage. […]

[4] = biological target: cathepsin B (Homo sapiens, UniProt P07858); conditions: cited from earlier work
[5] = test system: cathepsin L; experiment: Cathepsin L activity assay in glomerular extracts (fluorogenic substrate CV-(FR)2); format: biochemical, mouse; conditions: LPS treated mice, co-incubation
Method: Isolation and processing of glomeruli. Glomeruli were isolated from kidneys of 8-12 weeks old LPS- and PBS-treated (control) mice using a sequential sieve technique with mesh sizes of 180, 100, and 71 μm. The fraction collected from the 71-μm sieve was maintained for soup/pellet fractionation. Isolated glomeruli were homogenized in buffer containing 20 mM HEPES pH 7.5, 100 mM NaCl, 1 mM MgCl2, 1 mM PMSF, protease inhibitors (Roche), calpain inhibitor (Calbiochem), and E-64d (Calbiochem) using Dounce homogenizer. Subsequently, cytosol was centrifuged for 10 min at 4,600 g. Proteins were solubilized by 1% Triton X-100, 1 hour at 4° C., before it was spun at 70,000 g for 1 hour.
Cathepsin L activity assay. Subcellular sites of cathepsin L and cathepsin B activity in glomerular extracts were visualized by a fluorogenic substrate, CV—(FR)2, which emits light upon cleavage by cathepsin L or cathepsin B (Biomol).
To test the significance of this prediction, glomeruli were isolated from control mice and animals that were injected with low-dose lipopolysaccharide (LPS), a treatment causing high levels of cytosolic cathepsin L in podocytes. The tissue samples were further processed to obtain cytosolic and membrane-bound glomerular extracts (FIG. 1A). […]

[6] = listed as specific CatL inhibitor

## CC(C)C[C@H](NC(=O)[C@H]1O[C@@H]1C(=O)O)C(=O)NCCCCN=C(N)N [E64]
[1]
  protection against proteinuria: safeguard against proteinuria
[2]
  experimental proteinuria: can reduce experimental proteinuria

## COC(=O)[C@@H]1CC2=CC(=O)CC[C@]2(C)[C@@]23O[C@@H]2C[C@@]2(C)[C@@H](CC[C@@]24CCC(=O)O4)[C@H]13 [Epleronone]
[1]
  protection against proteinuria: safeguard against proteinuria

## CCN(CC)CCCC(C)Nc1nc(C)cc(Nc2ccc3nc(C)cc(N)c3c2)n1 (centres unmarked) [NSC23766]
[1]
  protection against proteinuria: safeguard against proteinuria

## O=C(NC(Cc1ccccc1)C(=O)NC(Cc1ccccc1)C(=O)CF)OCc1ccccc1 (stereo not drawn) [Z-FF-FMK] (Cbz-Phe-Phe-CH2F; configuration not given here)
[3]; [6]
  cleavage of CD2AP into p32 by WT cathepsin L: can be prevented
  cleavage of CD2AP into p32 by cytosolic (short, CatL M1) cathepsin L: abrogated
[3]; listed as specific cathepsin L inhibitor
  cleavage of CD2AP into p32 by WT cathepsin L: could be prevented
[3]; listed as cathepsin L inhibitor
  cleavage of CD2AP into p32 by cytosolic (short, CatL M1) cathepsin L: could be blocked
[4]
  inhibition of cathepsin B: does not inhibit cathepsin B
[5]
  inhibition of cathepsin L activity in cytosolic extract of glomeruli: could be inhibited

## CC(C)[C@@H]1NC(=O)[C@@H](Cc2ccccc2)NC(=O)[C@H](CC(=O)O)NC(=O)CNC(=O)[C@H](CCCN=C(N)N)NC1=O [cycloRGDfV]
[1]
  protection against proteinuria: safeguard against proteinuria

— patent publication US20110236397A1, “LIMITED PROTEOLYSIS OF CD2AP AND PROGRESSION OF RENAL DISEASE” (University of Miami, priority 2008, published 2011)
